One may read the IC50 as the concentration that gives 50% inhibition.

Read-outs that look alike come from different tables or passages of the source.

Here are results for 6 molecules from US7795252B2, “Rapamycin analogues and the uses thereof in the treatment of neurological, proliferative, and inflammatory disorders” (Pfizer Inc., priority 2004, dated 2010).

For test [1], the system named is Mesencephalic dopaminergic neuron cultures. The test can be described thus: dopaminergic (3H-dopamine) uptake assay after MPP+ exposure. The note with it: rat E15 mesencephalic dopaminergic neurons, read-out: EC50 in dopaminergic uptake assays. The test is classed as cell-based. The protocol:
Mesencephalic dopaminergic neuron cultures were prepared as described in Pong et al., J. Neurochem. 69: 986-994, 1997, which is incorporated herein by reference in its entirety. Embryonic day 15 (E15) rat fetuses were collected and dissected in ice-cold phosphate-buffered saline (PBS). The ventral piece of tissue compromising the mesencephalic dopaminergic region was dissected out. Dissected pieces of tissue were pooled together and transferred to an enzymatic dissociation medium containing 20 IU/mL papain in Earle's balanced salt solution (Worthington Biochemical, Freehold, N.J., USA) and incubated for 60 minutes at 37° C. After enzymatic dissociation, the papain solution was aspirated and the tissue mechanically triturated with a fire-polished glass Pasteur pipette in complete medium (equal volumes of minimum essential medium (MEM) and F-12 nutrient mixture (GibcoBRL) supplemented with 0.1 mg/mL apotransferrin and 2.5 μg/mL insulin) containing 2,000 IU/mL DNase and 10 mg/mL ovomucoid protease inhibitor.
For dopamine uptake experiments, single-cell suspensions in complete media were seeded on poly-L-ornithine and laminin coated 24-well plates. The cultures were maintained for seven days prior to experimentation. Cultures were pretreated with various concentrations of the compound for 24 hours, then exposed to 10 mM MPP+ for 1 hour. Following the 1 hour incubation, media was exchanged three times and fresh compound was added for an additional 48 hours.
After 48 hours growth of mesencephalic dopaminergic neuron cultures following MPP+ exposure, high-affinity 3H-dopamine uptake was performed using a modified method described by Prochiantz et al., Nature 293: 570-572, 1981, which is incorporated herein by reference. Cultures were washed with pre-warmed PBS containing 5.6 mM glucose and 1 mM ascorbic acid. Cultures were then incubated for 15 minutes at 37° C. with 50 nM 3H-dopamine (31 Ci/mmol, DuPont-NEN, Wilmington, Del., USA). The cultures were washed twice with buffer and lysed with 0.5 N NaOH. The lysate was transferred to a scintillation vial containing Ultima Gold scintillation cocktail and radioactivity was determined with a liquid scintillation counter. Alternatively, culture lysates can be washed twice with buffer, incubated for 2 hours at room temperature with Optiphase Supermix scintillation cocktail (Wallac Scintillation Products, Gaithersburg, Md., USA), and radioactivity measured with a liquid scintillation counter.

The subject of test [2] is Dissociated cortical neuron cultures. The test can be described thus: cortical neuron assay (neurite outgrowth). The test is classed as cell-based. The note with it: Cortical neurone, rat E15 cortical neurons, compound for 72 hours, read-out: EC50 in cortical neuron assays. The protocol: Dissociated cortical neuron cultures were prepared as previously described (Pong et al., 2001). Briefly, embryonic day 15 rat fetuses were collected and dissected in ice-cold PBS. Dissected cortices were pooled together and transferred to an enzymatic dissociation medium containing papain. After 30 minutes, the tissue was mechanically triturated with a fire-polished glass Pasteur pipette. Single-cell suspensions in complete media were seeded on poly-L-ornithine and laminin coated 96-well plates. After 24 hours, cultures were treated with various concentrations of compound for 72 hours. The cultures were then fixed and stained with an anti-tubulin primary antibody (TUJ-1) and a fluorescent-tagged secondary antibody. Neurite outgrowth was determined by using the Enhanced Neurite Outgrowth (ENO) algorithm with the Cellomics ArrayScan and expressed as average neurite length or total neurite length per cell.

Test [3] deals with Spinal cord neuron cultures. The experiment in a line: spinal cord neuron assay. The test is classed as cell-based. The note with it: rat E15 spinal cord neurons, compound for 72 h, read-out: EC50 in spinal cord neuron assays. The protocol: Spinal cord neuron cultures were prepared from embryonic day 15 (E15) rat embryos (Sprague-Dawley, Charles River Laboratories, Wilmington, Mass.). The embryos were collected and their spinal cords were removed in ice-cold phosphate-buffered saline (PBS) without Ca^2+ and Mg^2+. Dissected pieces of spinal cord tissue were pooled together and transferred to an enzymatic dissociation media containing 20 IU/mL papain in Earle's balanced salt solution (Worthington Biochemical, Freehold, N.J.) and incubated for 30 minutes at 37° C. After enzymatic dissociation, the papain solution was aspirated and the tissue mechanically triturated with a fire-polished Pasteur pipette in complete media [Neurobasal Medium with B-27 supplement (Gibco, Grand Island, N.Y.), 100 IU/mL penicillin, 100 μg/mL streptomycin, 3.3 μg/mL aphidicolin, 0.5 mM glutamate] containing 2,000 IU/mL DNase and 10-mg/mL ovomucoid protease inhibitor. Single-cell suspensions in complete media were plated on pre-coated poly-L-ornithine/laminin 96-well plates (Becton-Dickinson, Bedford, Mass.) at a density of 1.0×10^4 cells/well. Spinal cord neurons were maintained for 24 h then exposed to vehicle or various concentrations of compound for 72 h.

The subject of another test is rats following pMCAO. The experiment in a line: Permanent occlusion of middle cerebral artery (pMCAO), behavioral deficit scoring. The test is classed as in vivo, rat. Conditions: I.V. administration (10 mg/kg) following pMCAO. The protocol:
Adult male Wistar rats (Charles River, Wilmington, Mass.) 270-300 g were anesthetized with 3% isoflurane in 70% nitrous oxide and 30% oxygen through a nose cone. Temperature was maintained at 37° C. throughout the surgery using a heating lamp. Permanent occlusion of MCAO was induced by electro cauterization of the distal portion of the MCA (via a craniotomy) with a 90 min ligation of both carotid arteries to interrupt collateral circulation (Chen S T, Hsu C Y, Hogan E L, Maricq H Balentine J D (1986) A model of focal ischemic stroke in the rat: reproducible extensive cortical infarction. Stroke 17:738-743). Compound was administered 10 mg/kg i.v. 1.5, 5.5, 24, 48, and 72 hours post ischemia. Rats were kept for 21 day for long-term functional recovery evaluation. […] Rats extending both forelimbs toward the table were scored as 0, flexing contralateral limb toward the body and/or rotating the contralateral shoulder and limb medially were scored as 1, and rolling up the body toward the contralateral side and attempting to grasp the tail were scored as 2. […] Rats retracting hind limb back on bench top immediately were scored as 0, delaying (>2 seconds) were scored as 1, and unable to retract hind limb were score as 2. […]

For test [4], the system named is human CD4+ T cells. The test can be described thus: Anti-CD3/-CD28 stimulation and IL-2 re-stimulation assay. The test is classed as cell-based. The protocol:
(§1) In the following assays, human CD4+ T cells were purified by negative selection from peripheral blood lymphocytes using RosetteSep as per manufacture's instructions (StemCell Technologies, Inc. Vancouver, British Columbia).
Tosyl-activated magnetic microspheres (Dynal, Great Neck, N.Y.) were coated with anti-CD3 Ab (1 μg/10^7 microspheres), and anti-CD28Ab (0.5 μg/10^7 microspheres) as described in Blair et al. J. Immunol., 160:12, 1998. Murine IgG was used to saturate the binding capacity of the microspheres (total protein=5 μg/10^7 microspheres). Protein-coated microspheres were added to purified CD4+ T cells (2×10^6 cells/mL, ratio 1 bead: 1 cell) and activated for 72 hours in RPMI, 10% fetal calf serum, 2 mM glutamine media. Cells were harvested, washed, and cultured overnight in fresh media and re-stimulated with IL-2 as described in Bennett et al., J. Immunol. 170:711, 2003. Briefly, overnight rested cells were recounted, plated (10^5 cells/well) in flat-bottomed 96 well microtiter plates and stimulated with 1 ng/mL human IL-2 (R&D Systems, Minneapolis, Minn.) in the presence of increasing concentrations of compound. Seventy-two hours after culture re-stimulation, plates were pulsed with 1 μCi/well tritiated thymidine and incubated for a 6-16 hour period.

Test [5] deals with human CD4+ T cells. The experiment in a line: PMA/ionomycin activation assay. The test is classed as cell-based. The note with it: CD4+ T cells stimulated with PMA and ionomycin, tritiated thymidine incorporation, read-out: EC50, inhibition of proliferation. The protocol: as §1
Proliferation of the compounds was determined using this assay. CD4+ T cells (5×10^5 cells/well) were plated in flat bottomed 96 well microtiter plates in RPMI, 10% fetal calf serum, 2 mM glutamine media and stimulated with PMA (10 ng/mL) and ionomycin (200 ng/mL) in the presence of increasing concentration of compound. Seventy-two hours after activation, 100 μL of culture media was collected for IL-2 determination, an additional 100 μL fresh media was added to each well and cultures labeled with tritiated thymidine (1 μCi/well) for 6 hours. Cultures were harvested and tritiated thymidine incorporation (count per minute, CPM) assessed using a Trilux (Perkin Elmer, Shelton, Conn.). IL-2 production was determined using an ELISA as per manufacture's instructions (R&D Systems, Minneapolis, Minn.).
(Uptake of a labelled nucleoside into DNA is a usual measure of proliferation.)

Consider `CO[C@H]1C[C@@H]2CC[C@@H](C)[C@@](O)(O2)C(=O)C(=O)N2CCCC[C@H]2C(=O)O[C@H]([C@H](C)C[C@@H]2CC[C@@H](OC(=O)C(C)(CO)CO)[C@H](OC)C2)CC(=O)[C@H](C)/C=C(\C)[C@@H](O)[C@@H](OC)C(=O)[C@H](C)C[C@H](C)/C=C/C=C/C=C/1C` [CCI-779, reference compound], for which the EC50 in test [1] (Neuron) and in test [2] was over 1 µM in each case.
As for `CO[C@H]1C[C@@H]2CC[C@@H](C)[C@@](O)(O2)C(=O)C(=O)N2CCCC[C@H]2C(=O)O[C@H]([C@H](C)C[C@@H]2CC[C@@H](O)[C@H](OC)C2)CC(=O)[C@H](C)/C=C(\C)[C@@H](O)[C@@H](OC)C(=O)[C@H](C)C[C@H](C)[C@@H]2CC[C@H](/C=C/1C)ON2c1ccccc1` [Example 2, 9,27-dihydroxy-3-{2-[4-hydroxy-3-methoxycyclohexyl]-1-methylethyl}-10,21-dimethoxy-6,8,12,14,20,26-hexamethyl-37-phenyl-4,9,10,12,13,14,15,16,17,18,21,22,23,24,25,26,27,32,33,34,34a-henicosahydro-3H-23,27-epoxy-18,15-(epoxyimino)pyrido[2,1-c][1,4]oxazacyclohentriacontine-1,5,11,28,29(6H,31H)-pentone], the EC50 in test [3] and in test [2] was under 1 µM each time. The behavior deficit scoring entry with rats following pMCAO was “statistically significant reduction”.
As to `CO[C@H]1C[C@@H]2CC[C@@H](C)[C@@](O)(O2)C(=O)C(=O)N2CCCC[C@H]2C(=O)O[C@H]([C@H](C)C[C@@H]2CC[C@@H](O)[C@H](OC)C2)CC(=O)[C@H](C)/C=C(\C)[C@@H](O)[C@@H](OC)C(=O)[C@H](C)C[C@H](C)C2C=CC(/C=C/1C)ON2c1c(Cl)cccc1Cl` [Example 3, 37-(2,6-dichlorophenyl)-9,27-dihydroxy-3-{2-[4-hydroxy-3-methoxycyclohexyl]-1-methylethyl}-10,21-dimethoxy-6,8,12,14,20,26-hexamethyl-4,9,10,12,13,14,15,18,21,22,23,24,25,26,27,32,33,34,34a-nonadecahydro-3H-23,27-epoxy-18,15-(epoxyimino)pyrido[2,1-c][1,4]oxazacyclohentriacontine-1,5,11,28,29(6H,31H)-pentone], the figures for the EC50 (in test [3]; with human CD4+ T cells [5]; in test [2]) were under 1 µM, 0.2 to 4.9 µM and under 1 µM, respectively. In addition, the half-maximal inhibitory concentration (IC50) in the test with human CD4+ T cells [4] (CD4+ T cells activated with anti-CD3/anti-CD28, re-stimulated with 1 ng/mL human IL-2, read-out: IC50, inhibition of IL-2 production) is under 1 µM. Besides, the “IL-2 production compared with rapamycin and CCI-779” value with human CD4+ T cells [4] (CD4+ T cells, IL-2 re-stimulation) is given as “commensurate”.
Regarding `CO[C@H]1C[C@@H]2CC[C@@H](C)[C@@](O)(O2)C(=O)C(=O)N2CCCC[C@H]2C(=O)O[C@H]([C@H](C)C[C@@H]2CC[C@@H](OC(=O)C(C)(C)Cc3ccccn3)[C@H](OC)C2)CC(=O)[C@H](C)/C=C(\C)[C@@H](O)[C@@H](OC)C(=O)[C@H](C)C[C@H](C)C2C=CC(/C=C/1C)ON2c1ccccc1` [Example 6, 9,27-dihydroxy-3-{-2-[4-hydroxy-3-methoxycyclohexyl]-1-methylethyl}-10,21-dimethoxy-6,8,12,14,20,26-hexamethyl-37-phenyl-4,9,10,12,13,14,15,18,21,22,23,24,25,26,27,32,33,34,34a-nonadecahydro-3H-23,27-epoxy-18,15-(epoxyimino)pyrido[2,1-c][1,4]oxazacyclohentriacontine-1,5,11,28,29(6H,31H)-pentone ester with-2,2-dimethyl-3-(pyridin-2-yl)-propionic acid], the EC50 in test [1] (Neuron) and in test [3] was under 1 µM in each case.
Regarding `CO[C@H]1C[C@@H]2CC[C@@H](C)[C@@](O)(O2)C(=O)C(=O)N2CCCC[C@H]2C(=O)O[C@H]([C@H](C)C[C@@H]2CC[C@@H](O)[C@H](OC)C2)CC(=O)[C@H](C)/C=C(\C)[C@@H](O)[C@@H](OC)C(=O)[C@H](C)C[C@H](C)/C=C/C=C/C=C/1C` [rapamycin], the EC50 in test [1] (Neuron) and in test [2] was over 1 µM throughout.
Turning to Rapamycin phenyltriazolinedione, the EC50 in test [1] is under 1 µM.
